Source: patent publication US7964531B2, “3-phenoxy-4-pyridazinol derivatives and herbicidal composition containing the same” (Mitsui Chemicals Agro, Inc., priority 2001, dated 2011)

Key:
Assay type in all cases: in vivo
Conditions in all cases: wettable powder applied 3 days after transplanting, judged after 25 days
Scirpus joncoides = test: Test Example 1: herbicidal effects, paddy-field pot test
Method in brief: (§1)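 Herbicidal effect and crop injury were rated 0 (0-10% inhibition) to 5 (91-100%) 25 days after treatment. Water-diluted wettable powder was applied to flooded greenhouse pots 3 days after transplanting 2.2-leaf rice. The pots held seeded weeds and sprouted Cyperus serotinus tubers.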

[1] = tested on: barnyardgrass (Echinochloa oryzicola Vasing.); test: as above
Method in brief: as §1

Cyperus serotinus = test: as above
Method in brief: as §1

[2] = tested on: annual broad-leaved weeds (Lindernia spp., Rotala indica); test: as above
Method in brief: as §1

[3] = tested on: transplanted paddy-field rice; test: Test Example 1: crop injury against transplanted paddy-field rice
Method in brief: as §1

SMILES	Herbicidal effects Scirpus joncoides (Scirpus joncoides; chemical dosage 10 g/a)	Herbicidal effects Scirpus joncoides (Scirpus joncoides; chemical dosage 20 g/a)	Herbicidal effects Barnyard grass ([1]; chemical dosage 10 g/a)	Herbicidal effects Barnyard grass ([1]; chemical dosage 20 g/a)	Herbicidal effects Cyperus serotinus (Cyperus serotinus; chemical dosage 10 g/a)	Herbicidal effects Cyperus serotinus (Cyperus serotinus; chemical dosage 20 g/a)	Herbicidal effects Broad leaf ([2]; chemical dosage 10 g/a)	Herbicidal effects Broad leaf ([2]; chemical dosage 20 g/a)	Crop injury against transplanted rice ([3]; chemical dosage 10 g/a)	Crop injury against transplanted rice ([3]; chemical dosage 20 g/a)
COC(=O)Oc1cc(Cl)nnc1Oc1ccccc1C1CC1 [Example 345]	5 (Growth inhibition rate; 91 to 100%)	5 (Growth inhibition rate; 91 to 100%)	3 (Growth inhibition rate; 51 to 70%)	4 (Growth inhibition rate; 71 to 90%)	5 (Growth inhibition rate; 91 to 100%)	5 (Growth inhibition rate; 91 to 100%)	5 (Growth inhibition rate; 91 to 100%)	5 (Growth inhibition rate; 91 to 100%)	0 (Growth inhibition rate; 0 to 10%)	0 (Growth inhibition rate; 0 to 10%)
CCOC(=O)Oc1cc(Cl)nnc1Oc1ccccc1C1CC1 [Example 347]	5 (Growth inhibition rate; 91 to 100%)	5 (Growth inhibition rate; 91 to 100%)	3 (Growth inhibition rate; 51 to 70%)	4 (Growth inhibition rate; 71 to 90%)	5 (Growth inhibition rate; 91 to 100%)	5 (Growth inhibition rate; 91 to 100%)	5 (Growth inhibition rate; 91 to 100%)	5 (Growth inhibition rate; 91 to 100%)	0 (Growth inhibition rate; 0 to 10%)	0 (Growth inhibition rate; 0 to 10%)
Cc1ccccc1Oc1nnc(Cl)cc1OC(=O)OCC(Cl)(Cl)Cl [Example 349]	4 (Growth inhibition rate; 71 to 90%)	5 (Growth inhibition rate; 91 to 100%)	3 (Growth inhibition rate; 51 to 70%)	4 (Growth inhibition rate; 71 to 90%)	5 (Growth inhibition rate; 91 to 100%)	5 (Growth inhibition rate; 91 to 100%)	4 (Growth inhibition rate; 71 to 90%)	5 (Growth inhibition rate; 91 to 100%)	0 (Growth inhibition rate; 0 to 10%)	0 (Growth inhibition rate; 0 to 10%)
Cc1ccccc1Oc1nnc(Cl)cc1OS(C)(=O)=O [Example 356]	3 (Growth inhibition rate; 51 to 70%)	5 (Growth inhibition rate; 91 to 100%)	2 (Growth inhibition rate; 31 to 50%)	3 (Growth inhibition rate; 51 to 70%)	5 (Growth inhibition rate; 91 to 100%)	5 (Growth inhibition rate; 91 to 100%)	4 (Growth inhibition rate; 71 to 90%)	5 (Growth inhibition rate; 91 to 100%)	0 (Growth inhibition rate; 0 to 10%)	0 (Growth inhibition rate; 0 to 10%)
CS(=O)(=O)Oc1cc(Cl)nnc1Oc1ccccc1C1CC1 [Example 357]	5 (Growth inhibition rate; 91 to 100%)	5 (Growth inhibition rate; 91 to 100%)	2 (Growth inhibition rate; 31 to 50%)	3 (Growth inhibition rate; 51 to 70%)	5 (Growth inhibition rate; 91 to 100%)	5 (Growth inhibition rate; 91 to 100%)	5 (Growth inhibition rate; 91 to 100%)	5 (Growth inhibition rate; 91 to 100%)	0 (Growth inhibition rate; 0 to 10%)	0 (Growth inhibition rate; 0 to 10%)
CCCS(=O)(=O)Oc1cc(Cl)nnc1Oc1ccccc1C [Example 359]	3 (Growth inhibition rate; 51 to 70%)	4 (Growth inhibition rate; 71 to 90%)	4 (Growth inhibition rate; 71 to 90%)	5 (Growth inhibition rate; 91 to 100%)	5 (Growth inhibition rate; 91 to 100%)	5 (Growth inhibition rate; 91 to 100%)	3 (Growth inhibition rate; 51 to 70%)	5 (Growth inhibition rate; 91 to 100%)	0 (Growth inhibition rate; 0 to 10%)	0 (Growth inhibition rate; 0 to 10%)
CCCS(=O)(=O)Oc1cc(Cl)nnc1Oc1ccccc1C1CC1 [Example 360]	5 (Growth inhibition rate; 91 to 100%)	5 (Growth inhibition rate; 91 to 100%)	3 (Growth inhibition rate; 51 to 70%)	4 (Growth inhibition rate; 71 to 90%)	5 (Growth inhibition rate; 91 to 100%)	5 (Growth inhibition rate; 91 to 100%)	5 (Growth inhibition rate; 91 to 100%)	5 (Growth inhibition rate; 91 to 100%)	0 (Growth inhibition rate; 0 to 10%)	0 (Growth inhibition rate; 0 to 10%)
CCCS(=O)(=O)Oc1cc(Cl)nnc1Oc1cccc2c1CCC2 [Example 361]	5 (Growth inhibition rate; 91 to 100%)	5 (Growth inhibition rate; 91 to 100%)	2 (Growth inhibition rate; 31 to 50%)	3 (Growth inhibition rate; 51 to 70%)	4 (Growth inhibition rate; 71 to 90%)	5 (Growth inhibition rate; 91 to 100%)	5 (Growth inhibition rate; 91 to 100%)	5 (Growth inhibition rate; 91 to 100%)	0 (Growth inhibition rate; 0 to 10%)	0 (Growth inhibition rate; 0 to 10%)
O=S(=O)(Oc1cc(Cl)nnc1Oc1ccccc1C1CC1)c1ccccc1 [Example 365]	4 (Growth inhibition rate; 71 to 90%)	5 (Growth inhibition rate; 91 to 100%)	2 (Growth inhibition rate; 31 to 50%)	3 (Growth inhibition rate; 51 to 70%)	5 (Growth inhibition rate; 91 to 100%)	5 (Growth inhibition rate; 91 to 100%)	5 (Growth inhibition rate; 91 to 100%)	5 (Growth inhibition rate; 91 to 100%)	0 (Growth inhibition rate; 0 to 10%)	0 (Growth inhibition rate; 0 to 10%)
